Consider one molecule from publication PMC3093745 (ACS Medicinal Chemistry Letters, 2011).

Molecules are shown by their SMILES.

In one assay the target is HDAC1 (Homo sapiens, UniProt Q13547). Kind of assay: HDAC1 in vitro homogeneous fluorogenic deacetylase assay. Format: biochemical. The conditions noted are these: read-out: IC50 HDAC1; SD in parentheses; duplicate; substrate MAZ1600 21 µM.
In a further assay the target is HDAC2 (Homo sapiens, UniProt Q92769). Kind of assay: HDAC2 in vitro homogeneous fluorogenic deacetylase assay. Type of assay: biochemical. The conditions noted are these: read-out: IC50 HDAC2; SD in parentheses; duplicate; substrate MAZ1600 22 µM.
A further assay deals with T1, HDAC6 (Homo sapiens, UniProt Q9UBN7).
T1 sequence (Q9UBN7 1-1215): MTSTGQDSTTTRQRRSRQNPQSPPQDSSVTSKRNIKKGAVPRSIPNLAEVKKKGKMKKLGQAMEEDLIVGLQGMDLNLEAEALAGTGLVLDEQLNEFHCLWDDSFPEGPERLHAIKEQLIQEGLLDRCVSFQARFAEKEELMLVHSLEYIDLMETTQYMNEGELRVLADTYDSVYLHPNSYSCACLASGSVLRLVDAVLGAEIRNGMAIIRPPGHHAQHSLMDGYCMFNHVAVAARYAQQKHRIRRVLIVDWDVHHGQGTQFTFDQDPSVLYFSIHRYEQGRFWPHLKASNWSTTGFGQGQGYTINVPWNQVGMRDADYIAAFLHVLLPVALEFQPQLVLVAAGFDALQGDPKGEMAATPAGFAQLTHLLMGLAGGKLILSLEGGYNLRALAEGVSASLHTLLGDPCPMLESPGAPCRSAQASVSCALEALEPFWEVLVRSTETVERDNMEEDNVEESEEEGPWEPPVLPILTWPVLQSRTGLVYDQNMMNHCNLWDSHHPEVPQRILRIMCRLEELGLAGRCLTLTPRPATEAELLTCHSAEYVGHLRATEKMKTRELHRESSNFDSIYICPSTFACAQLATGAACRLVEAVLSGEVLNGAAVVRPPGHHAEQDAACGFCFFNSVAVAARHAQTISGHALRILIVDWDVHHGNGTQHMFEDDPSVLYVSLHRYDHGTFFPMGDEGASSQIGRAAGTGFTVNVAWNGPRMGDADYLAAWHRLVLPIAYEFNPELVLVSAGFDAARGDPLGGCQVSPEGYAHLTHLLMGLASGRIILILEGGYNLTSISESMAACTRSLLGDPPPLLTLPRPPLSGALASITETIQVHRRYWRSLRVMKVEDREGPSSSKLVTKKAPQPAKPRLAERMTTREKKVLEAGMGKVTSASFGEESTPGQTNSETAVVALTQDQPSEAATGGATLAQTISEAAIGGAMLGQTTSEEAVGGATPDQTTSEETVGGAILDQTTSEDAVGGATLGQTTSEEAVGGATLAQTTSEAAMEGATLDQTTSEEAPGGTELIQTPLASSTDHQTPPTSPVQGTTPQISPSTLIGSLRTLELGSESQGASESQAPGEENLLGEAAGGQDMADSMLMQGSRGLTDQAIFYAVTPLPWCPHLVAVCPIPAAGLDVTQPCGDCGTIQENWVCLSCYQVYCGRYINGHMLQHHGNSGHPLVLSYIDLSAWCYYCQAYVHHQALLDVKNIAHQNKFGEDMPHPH
The assay is described as follows: HDAC6 in vitro homogeneous fluorogenic deacetylase assay. Type of assay: biochemical. Particulars: read-out: IC50 HDAC6; SD in parentheses; duplicate; substrate MAZ1600 9 µM.

For another assay, the target named is HDAC3 (Homo sapiens, UniProt O15379). The assay is described as follows: HDAC3 in vitro homogeneous fluorogenic deacetylase assay. Format: biochemical. Particulars: read-out: IC50 HDAC3; SD in parentheses; duplicate; substrate MAZ1600 9 µM.
For a further assay, the system named is MCF7 cells. Kind of assay: Propidium iodide staining, cell cycle and cell death in MCF7 cells. Type of assay: cell-based. The conditions noted are these: 1 µM, 48 hours, PI staining.

HDAC1, sequence (Q13547 whole entry): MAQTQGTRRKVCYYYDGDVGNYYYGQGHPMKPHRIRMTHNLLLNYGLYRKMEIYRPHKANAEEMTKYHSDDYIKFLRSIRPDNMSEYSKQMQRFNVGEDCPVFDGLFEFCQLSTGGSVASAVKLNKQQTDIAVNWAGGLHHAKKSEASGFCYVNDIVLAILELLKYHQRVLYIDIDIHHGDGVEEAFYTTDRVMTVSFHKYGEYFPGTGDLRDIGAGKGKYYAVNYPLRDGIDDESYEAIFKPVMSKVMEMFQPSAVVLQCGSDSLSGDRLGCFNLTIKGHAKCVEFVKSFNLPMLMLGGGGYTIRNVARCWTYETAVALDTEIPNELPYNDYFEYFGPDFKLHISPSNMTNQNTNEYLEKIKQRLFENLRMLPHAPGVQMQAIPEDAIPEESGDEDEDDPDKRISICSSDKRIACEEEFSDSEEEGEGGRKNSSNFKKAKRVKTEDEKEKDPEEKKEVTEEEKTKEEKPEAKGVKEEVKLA
HDAC2, sequence (Q92769 whole entry): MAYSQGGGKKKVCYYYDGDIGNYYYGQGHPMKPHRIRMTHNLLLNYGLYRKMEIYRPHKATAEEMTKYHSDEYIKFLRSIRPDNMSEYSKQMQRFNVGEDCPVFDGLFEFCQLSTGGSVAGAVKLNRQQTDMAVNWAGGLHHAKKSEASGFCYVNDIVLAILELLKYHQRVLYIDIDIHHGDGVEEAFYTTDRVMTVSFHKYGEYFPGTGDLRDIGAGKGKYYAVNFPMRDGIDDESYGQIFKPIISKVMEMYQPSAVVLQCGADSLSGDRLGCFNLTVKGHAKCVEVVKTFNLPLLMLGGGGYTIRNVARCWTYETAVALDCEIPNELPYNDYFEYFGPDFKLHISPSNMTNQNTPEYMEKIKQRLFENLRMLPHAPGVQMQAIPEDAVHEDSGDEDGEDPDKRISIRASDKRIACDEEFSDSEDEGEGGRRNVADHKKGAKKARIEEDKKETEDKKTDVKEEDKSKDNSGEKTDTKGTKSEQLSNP
HDAC3, sequence (O15379 whole entry): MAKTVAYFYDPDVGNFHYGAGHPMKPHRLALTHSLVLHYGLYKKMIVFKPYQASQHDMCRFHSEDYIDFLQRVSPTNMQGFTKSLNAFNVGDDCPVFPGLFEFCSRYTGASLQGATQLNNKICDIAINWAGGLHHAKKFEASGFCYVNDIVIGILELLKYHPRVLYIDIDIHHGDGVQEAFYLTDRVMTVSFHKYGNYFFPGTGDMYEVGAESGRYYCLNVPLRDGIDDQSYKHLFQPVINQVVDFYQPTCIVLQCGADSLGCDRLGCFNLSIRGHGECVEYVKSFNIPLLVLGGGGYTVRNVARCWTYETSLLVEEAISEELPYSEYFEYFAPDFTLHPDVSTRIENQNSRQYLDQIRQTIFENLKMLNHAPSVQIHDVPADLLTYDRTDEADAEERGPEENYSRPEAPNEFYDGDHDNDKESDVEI
HDAC3, sequence (Q9Y618 395-489 partner limits assumed): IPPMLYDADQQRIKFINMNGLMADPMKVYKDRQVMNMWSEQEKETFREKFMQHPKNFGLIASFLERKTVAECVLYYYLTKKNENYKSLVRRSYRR

The term IC50 denotes the midpoint of a concentration-inhibition curve. Consider `O=C(CCCCCCC(=O)N[c-]1cccc1)NO.[Fe+2].c1cc[cH-]c1` [Compound 7, N^1-Hydroxy-N^8-ferrocenyloctanediamide], for which the concentration for half-maximal inhibition (IC50) on HDAC1 was determined as 11 nM; at HDAC2 it was 11 nM; at HDAC6 it was 0.8 nM; on HDAC3, 18 nM. Also, the “cell cycle arrest and cell death” value in the assay with MCF7 cells is “induced cell cycle arrest and cell death”.
